The values that follow are results of earlier work, collected in PMC6315591 (Marine Drugs, 2018).

For this series, the system named is muscle nAChR on BC3H-1 cells.

Take α-conotoxin MI: the “greater affinity at the α/δ versus α/γ interface” value is 10,000 fold.
